Experimental findings from paper PMC5916772 (ACS combinatorial science, 2017) are described below.

In general, IC50 refers to the concentration that inhibits the measured activity by half.

For assay [1], the system named is monoclonal anti-1′Nic antibody, mAb-5F3. The class given is binding, mice.
The test system of assay [2] is polyclonal anti-1′Nic antiserum. Kind of assay: Competition ELISA of polyclonal anti-1′Nic antiserum on 1′Nic-BSA coated plates. The class given is binding, mice. The note with it: pooled polyclonal anti-1′Nic antiserum; free HPs as competitors.

The structures appear in SMILES notation.

Regarding `CN1CCC[C@H]1c1cccnc1` [free Nic, nicotine], the HP-IC50/Nic-IC50 in assay [1] (IC50 ratio of HP-IC50 to IC50 of free nicotine on the same ELISA plate) is reported as 1.0. In addition, in assay [1] (read-out: HP-IC50, free HPs as competitors, 1′Nic-BSA coated plates), the IC50 worked out at 1410 ± 250 nM.
With `O=C(CCCN1CCC[C@H]1c1cccnc1)NC1CCC(C(=O)O)CC1` (stereo partly drawn) [HP 2, 4-(4-((S)-2-(Pyridin-3-yl)pyrrolidin-1-yl)butanamido)-cyclohexanecarboxylic Acid], the “HP-IC50/Nic-IC50 ratio, binding activity to antiserum” value in assay [2] is “close to or larger than 1.0”.
